# Experimental data as given in patent publication US20240024240A1 (priority 2020, published 2024).
# Assay: Sonication of magnesium oxide nanopowder with different ligands (functionalization, dispersion)
# Assay type: physicochemical
# Protocol: Different capping ligands were selected for the functionalization of magnesium oxide nanoparticles (see FIG. 5). This method is applicable to ligands whose anchoring groups forms stable magnesium complexes such as catecholates, salicylates, phosphates and phosphonates. Even if the affinity of each individual group for the particle surface is low, the multiplicity of anchoring groups provides a strong adsorption. For example, poly-aspartic and poly-glutamic acids were tested for the functionalization of magnesium oxide nanoparticles. In this procedure, the capping ligands were sonicated with the nanoparticles until a complete dispersion was obtained. The stability of the dispersion was evaluated by the absorption spectra of the obtained mixture.
# As a starting point for the optimization of the procedure, the magnesium oxide nanoparticles (200 mg) were dispersed in 25 mL of 1% capping agent with continuous stirring at different times. The concentration of nanoparticles and capping agent in the dispersion mixture together with the incubation temperature was optimized to increase the stability of the dispersed nanoparticles. The excess of capping agent was removed by centrifugation and washing with water. […]
"dispersion of magnesium oxide nanomaterial with ligand (preliminary results, FIG. 7)",SMILES,effect of ligand on magnesium oxide nanomaterial on sonication (magnesium oxide nanopowder sonicated in the presence of the ligand)
–,NCCP(=O)(O)O [2-aminoethylphosphonic acid],dissolved the nanomaterial
good results,NCCCC(O)(P(=O)(O)O)P(=O)(O)O [alendronate],–
